Test results as given in BindingDB's records for doi:10.1016/j.bmcl.2010.02.003 (Boehringer Ingelheim (Canada), 2010).

Tests used:
Cytochrome P450 1A2 = target: T1, Cytochrome P450 1A2 (Homo sapiens, UniProt P05177); test: Inhibition of CYP1A2
T1 sequence (P05177 whole entry): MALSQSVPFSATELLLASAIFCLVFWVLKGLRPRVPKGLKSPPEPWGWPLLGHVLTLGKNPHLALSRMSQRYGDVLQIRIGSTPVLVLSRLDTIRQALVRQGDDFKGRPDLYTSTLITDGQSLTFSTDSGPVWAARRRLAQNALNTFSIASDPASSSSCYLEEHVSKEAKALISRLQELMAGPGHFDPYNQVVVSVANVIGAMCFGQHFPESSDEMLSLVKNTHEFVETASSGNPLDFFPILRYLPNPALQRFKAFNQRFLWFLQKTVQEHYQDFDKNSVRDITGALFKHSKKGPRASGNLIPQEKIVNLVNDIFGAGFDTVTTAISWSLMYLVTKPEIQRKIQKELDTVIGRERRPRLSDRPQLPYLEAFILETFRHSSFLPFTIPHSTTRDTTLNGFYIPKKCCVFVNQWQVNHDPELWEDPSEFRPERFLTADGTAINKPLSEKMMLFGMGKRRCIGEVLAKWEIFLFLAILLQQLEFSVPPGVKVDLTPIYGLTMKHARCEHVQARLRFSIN

Cytochrome P450 2D6 = Cytochrome P450 2D6 (Homo sapiens, UniProt P10635); test: Inhibition of CYP2D6
Cytochrome P450 2D6, sequence (P10635 whole entry): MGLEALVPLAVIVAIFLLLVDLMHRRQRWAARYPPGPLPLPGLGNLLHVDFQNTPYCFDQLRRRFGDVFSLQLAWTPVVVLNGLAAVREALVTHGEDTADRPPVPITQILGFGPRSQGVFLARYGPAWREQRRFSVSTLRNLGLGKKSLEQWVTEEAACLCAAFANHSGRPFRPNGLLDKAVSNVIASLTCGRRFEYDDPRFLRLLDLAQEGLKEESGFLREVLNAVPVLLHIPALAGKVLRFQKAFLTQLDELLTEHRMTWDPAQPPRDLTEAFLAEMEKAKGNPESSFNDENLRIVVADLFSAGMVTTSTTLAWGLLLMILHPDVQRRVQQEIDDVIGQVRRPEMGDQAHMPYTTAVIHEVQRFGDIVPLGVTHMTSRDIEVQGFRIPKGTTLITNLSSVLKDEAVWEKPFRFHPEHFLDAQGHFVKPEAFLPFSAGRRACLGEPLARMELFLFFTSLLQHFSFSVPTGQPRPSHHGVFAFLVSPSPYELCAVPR

Cytochrome P450 3A4 = Cytochrome P450 3A4 (Homo sapiens, UniProt P08684); test: Inhibition of CYP3A4
Cytochrome P450 3A4, sequence (P08684 whole entry): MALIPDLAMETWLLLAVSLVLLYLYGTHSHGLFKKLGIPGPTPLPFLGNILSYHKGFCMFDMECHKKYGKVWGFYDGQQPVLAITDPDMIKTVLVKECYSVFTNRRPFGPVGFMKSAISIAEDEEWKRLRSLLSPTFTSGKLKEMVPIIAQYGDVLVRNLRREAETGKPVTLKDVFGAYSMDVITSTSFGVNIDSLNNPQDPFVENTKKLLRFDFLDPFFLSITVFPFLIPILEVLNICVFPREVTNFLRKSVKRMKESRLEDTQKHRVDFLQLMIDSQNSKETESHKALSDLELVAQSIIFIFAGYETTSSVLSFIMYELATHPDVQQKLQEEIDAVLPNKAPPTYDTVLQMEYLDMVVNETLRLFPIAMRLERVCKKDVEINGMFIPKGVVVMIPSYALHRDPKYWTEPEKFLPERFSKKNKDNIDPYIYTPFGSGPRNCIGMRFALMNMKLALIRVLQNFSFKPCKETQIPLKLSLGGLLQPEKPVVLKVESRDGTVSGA

IC50 (Cytochrome P450 1A2) [µM]	IC50 (Cytochrome P450 2D6) [µM]	IC50 (Cytochrome P450 3A4) [µM]	Compound
> 30	> 30	> 30	O=C(O)/C=C/c1ccc(NC(=O)C2(NC(=O)c3ccc4c(c3)nc(-c3ccoc3)n4C3CCCCC3)CCCC2)cc1 [3-(4-(1-(1-cyclohexyl-2-(furan-3-yl)-1H-benzo[d]imidazole-5-carboxamido)cyclopentanecarboxamido)phenyl)acrylic acid]
> 30			O=C(N[C@@H](Cc1c[nH]c2ccc(O)cc12)c1cscn1)c1ccc2c(c1)nc(-c1ccoc1)n2C1CCCCC1 [1-cyclohexyl-2-(furan-3-yl)-N-((S)-2-(5-hydroxy-1H-indol-3-yl)-1-(thiazol-4-yl)ethyl)-1H-benzo[d]imidazole-5-carboxamide]
> 30	> 30	> 30	O=C(O)/C=C/c1ccc(NC(=O)C2(NC(=O)c3ccc4c(c3)nc(-c3ccccn3)n4C3CCCCC3)CCCC2)cc1 [3-(4-(1-(1-cyclohexyl-2-(pyridin-2-yl)-1H-benzo[d]imidazole-5-carboxamido)cyclopentanecarboxamido)phenyl)acrylic acid]
